Results published in patent publication US20210323950A1, “HERBICIDALLY ACTIVE BICYCLIC BENZOYLPYRAZOLES” (Bayer Aktiengesellschaft, priority 2018, published 2021).

How the values were obtained:
Assay type in all cases: in vivo
[1] = system: Viola tricolor (VIOTR); experiment: Post-emergence herbicidal action against VIOTR; conditions: 20 g/ha, post-emergence at one-leaf stage, rated visually after about 3 weeks vs untreated controls
Description: (§1) VIOTR: Viola tricolor 2. Post-Emergence Herbicidal Action and Crop Plant Compatibility Seeds of monocotyledonous and dicotyledonous weeds and crop plants are placed in sandy loam in plastic or organic planting pots, covered with soil and cultivated in a greenhouse under controlled growth conditions. 2 to 3 weeks after sowing, the test plants are treated at the one-leaf stage. The compounds of the invention, formulated in the form of wettable powders (WP) or as emulsion concentrates (EC), are then sprayed onto the green parts of the plants as aqueous suspension or emulsion with addition of 0.5% additive at a water application rate of […] (converted). After the test plants had been kept in the greenhouse under optimum growth conditions for about 3 weeks, the activity of the preparations is rated visually in comparison to untreated controls. The tables below show the herbicidal activity of numerous compounds according to the invention against important harmful plants. For example, 100% activity=the plants have died, 0% activity=like control plants.

[2] = system: Amaranthus retroflexus (AMARE); experiment: Pre-emergence herbicidal action against AMARE; conditions: scored visually after about 3 weeks vs untreated controls
Text: (§2) AMARE: Amaranthus retroflexus 1. Pre-Emergence Herbicidal Action and Crop Plant Compatibility Seeds of monocotyledonous and dicotyledonous weed plants and crop plants are placed in plastic or organic planting pots and covered with soil. The compounds of the invention, formulated in the form of wettable powders (WP) or as emulsion concentrates (EC), are then applied onto the surface of the covering soil as aqueous suspension or emulsion with addition of 0.5% additive at a water application rate of […] (converted). After the treatment, the pots are placed in a greenhouse and kept under good growth conditions for the trial plants. After about 3 weeks, the effect of the preparations is scored visually in comparison with untreated controls as percentages. The tables below show the herbicidal activity of numerous compounds according to the invention against important harmful plants. For example, 100% activity=the plants have died, 0% activity=like control plants.

[3] = system: Abutilon theophrasti (ABUTH); experiment: Post-emergence herbicidal action against ABUTH; conditions: 20 g/ha, post-emergence at one-leaf stage, rated visually after about 3 weeks vs untreated controls
Description: as §1, with “ABUTH: Abutilon theophrasti” for “VIOTR: Viola tricolor”

[4] = system: Echinochloa crus-galli (ECHCG); experiment: Post-emergence herbicidal action against ECHCG; conditions: 20 g/ha, post-emergence at one-leaf stage, rated visually after about 3 weeks vs untreated controls
Description: as §1, with “ECHCG: Echinochloa crus-galli” for “VIOTR: Viola tricolor”

[5] = system: Stellaria media (STEME); experiment: Post-emergence herbicidal action against STEME; conditions: 20 g/ha, post-emergence at one-leaf stage, rated visually after about 3 weeks vs untreated controls
Description: as §1, with “STEME: Stellaria media” for “VIOTR: Viola tricolor”

[6] = system: Setaria viridis (SETVI); experiment: Post-emergence herbicidal action against SETVI; conditions: 20 g/ha, post-emergence at one-leaf stage, rated visually after about 3 weeks vs untreated controls
Description: as §1, with “SETVI: Setaria viridis” for “VIOTR: Viola tricolor”

[7] = system: Amaranthus retroflexus (AMARE); experiment: Post-emergence herbicidal action against AMARE; conditions: 20 g/ha, post-emergence at one-leaf stage, rated visually after about 3 weeks vs untreated controls
Description: as §1, with “AMARE: Amaranthus retroflexus” for “VIOTR: Viola tricolor”

[8] = system: Stellaria media (STEME); experiment: Pre-emergence herbicidal action against STEME; conditions: 80 g/ha, scored visually after about 3 weeks vs untreated controls
Text: as §2, with “STEME: Stellaria media” for “AMARE: Amaranthus retroflexus”

[9] = system: Veronica persica (VERPE); experiment: Pre-emergence herbicidal action against VERPE; conditions: 80 g/ha, scored visually after about 3 weeks vs untreated controls
Text: as §2, with “VERPE: Veronica persica” for “AMARE: Amaranthus retroflexus”

[10] = system: Veronica persica (VERPE); experiment: Post-emergence herbicidal action against VERPE; conditions: 20 g/ha, post-emergence at one-leaf stage, rated visually after about 3 weeks vs untreated controls
Description: as §1, with “VERPE: Veronica persica” for “VIOTR: Viola tricolor”

Row | SMILES | Post-emergence action against VIOTR [1] [%] | Pre-emergence action against AMARE ([2]; 320 g/ha) [%] | Post-emergence action against ABUTH [3] [%] | Post-emergence action against ECHCG [4] [%] | Post-emergence action against STEME [5] [%] | Post-emergence action against SETVI [6] [%] | Post-emergence action against AMARE [7] [%] | Pre-emergence action against AMARE ([2]; 80 g/ha) [%] | Pre-emergence action against STEME [8] [%] | Pre-emergence action against VERPE [9] [%] | Post-emergence action against VERPE [10] [%]
1 | CCn1ncc(C(=O)c2ccc(C(F)(F)F)c3c2OCS3)c1O [Example 1-18] | 100 | 100 | 80 | 80 | 90 | 80 |  |  |  |  | 
2 | Cc1nn(C)c(O)c1C(=O)c1ccc(C(F)(F)F)c2c1SCS2 [Example 1-68] | 80 |  |  | 80 |  |  | 90 | 100 | 100 |  | 
3 | Cn1ncc(C(=O)c2ccc(C(F)(F)F)c3c2SCS3(=O)=O)c1O [Example 1-85] |  |  |  |  | 80 |  | 90 | 100 | 100 | 90 | 80
